Measured values from patent US20250319088A1, “DAPRODUSTAT FOR REDUCING FATIGUE IN A SUBJECT WITH ANEMIA ASSOCIATED WITH CHRONIC KIDNEY DISEASE” (GlaxoSmithKline Intellectual Property (No.2) Limited, priority 2021, published 2025).

Key:
[1] = test system: patients with type 2 diabetes mellitus, non-dialysis dependent chronic kidney disease and anemia; details: at 25 weeks, cited from earlier work
[2] = test system: non-dialysis patient with anaemia associated with chronic kidney disease; assay: SF-36 Vitality Domain score in 28 week randomized double blind placebo controlled clinical study; assay type: in vivo, human; details: for Adjusted mean SF-36 Vitality Change from Baseline at Week 28 (SE): 0-100 score; for adjusted mean treatment difference (CI) in SF-36 Vitality: dapro-placebo
Protocol: (§1) A 28 week randomized double blind placebo controlled clinical study in non-dialysis patient with anaemia associated with chronic kidney disease has been conducted. Participants were assessed for eligibility for inclusion in the study on the basis of the following (non-exhaustive) inclusion and exclusion criteria.
(§2) Enrolled participants were randomized 1:1 to receive either daprodustat or matching placebo tablets administered once daily.
(§3) The treatment doses for participants in both treatment arms were titrated based on haemoglobin concentration as assessed by HemoCue. Haemoglobin concentration by HemoCue is assessed on day 1, and at weeks 2, 4, 8, 12, 16, 20, 24 and 28. The available dose steps of daprodustat and placebo were 1 mg, 2 mg, 4 mg, 6, mg, 8 mg, 10 mg, 12 mg and 16 mg. Dose modifications for participants followed the dose adjustment algorithm to achieve and maintain haemoglobin concentration within the target range of 11.0 to 12.0 g/dL outlined in Table 2.
(§4) The Short form SF-36 questionnaire was completed by participants on day 1 and on weeks 8, 12 and 28, and the CKD-AQ questionnaire was completed by participants on week −2 (i.e. during screening period) and on day 1 and weeks 8, 12 and 28.
(§5) • Mean change in the SF-36 Vitality Domain score (0-100) between baseline and week 28. This was a principal secondary endpoint and the study was appropriately powered for this endpoint. • Mean change from baseline by domain and overall symptoms score on the CKD-AQ (the study was not powered for this secondary endpoint, so only nominal significance can be assessed).
(§6) For the endpoints of mean change in haemoglobin and SF-36 Vitality Domain, an analysis of covariance model was used including covariates of baseline level, treatment, and region. The model provided point estimate and two-sided 95% CI for the treatment effect, together with a one-sided p-value. Significance was determined if the one-sided p-value was less than 0.025. The analysis population for the haemoglobin and SF-36 Vitality Domain endpoints was the intent-to-treat population. The analysis population for the Chronic Kidney Disease Anemia Questionnaire Tired/Low Energy/Weak Domain endpoint was the on treatment population and analysis was based on a mixed model repeated measures model fitted from baseline up to Week 28 with factors for treatment, time, region, baseline value, baseline value by time, and treatment by time interactions.
For the endpoints of mean change in haemoglobin and SF-36 Vitality Domain by subgroup, a similar model to that described above was used, adding covariates for subgroup and subgroup by treatment interaction term. The analysis population for these endpoints was the intent-to-treat population.
For endpoints of difference in SF-36 Vitality domain response rate, a Cochran-Mantel-Haenszel chi-squared test was used adjusting for treatment, baseline level, and region, to make comparisons between the treatment groups. Significance was determined if the one-sided p-value was less than 0.025. The analysis population for these endpoints was the intent-to-treat population.

[3] = test system: non-dialysis patient with anaemia associated with chronic kidney disease; assay: CKD-AQ Tired/Low Energy/Weak Domain score in 28 week placebo controlled clinical study; assay type: in vivo, human; details: on treatment population
Protocol: as §1, §2, §4, §5, §6
A simple linear transformation was used to recalibrate the items to a 0-100 scale as outlined in Tables 11 and 12. […]

[4] = test system: non-dialysis patient with anaemia associated with chronic kidney disease; assay: Haemoglobin concentration change from baseline to evaluation period in 28 week placebo controlled clinical study; assay type: in vivo, human
Protocol: as §1, §2, §3
The primary objective of the trial was to compare the efficacy of daprodustat to placebo on mean change in haemoglobin concentration. The primary endpoint was the mean change in haemoglobin concentration between baseline (day 1) and the evaluation period (mean over week 24 to week 28 inclusive).
For the endpoints of mean change in haemoglobin and SF-36 Vitality Domain, an analysis of covariance model was used including covariates of baseline level, treatment, and region. The model provided point estimate and two-sided 95% CI for the treatment effect, together with a one-sided p-value. Significance was determined if the one-sided p-value was less than 0.025. The analysis population for the haemoglobin and SF-36 Vitality Domain endpoints was the intent-to-treat population. […]

[5] = test system: non-dialysis patient with anaemia associated with chronic kidney disease; assay: hsCRP levels by baseline hsCRP quartile in 28 week placebo controlled clinical study; assay type: in vivo, human
Protocol: as §1
In addition to analysis of the intention to treat population, several sub-group analyses were pre-specified including subgroups with baseline hsCRP quartiles of <0.9 mg/L, 0.9 to <2.6 mg/L, 2.60 to <6.60 mg/L and ≥6.60 mg/L.
The changes in hsCRP levels in each quartile are given below in Tables 5 to 8.

darbepoetin alfa
mean change in SF-36 Vitality domain ([1]; versus 4.2±19 placebo, P=0.196): 5.3±20 | percentage of responders having a ≥5-point increase in SF-36 Vitality domain ([1]; versus 49% placebo, nominal P=0.027): 54%

O=C(O)CNC(=O)C1C(=O)N(C2CCCCC2)C(=O)N(C2CCCCC2)C1=O [Daprodustat, N-((1,3-dicyclohexylhexahydro-2,4,6-trioxopyrimidin-5-yl)carbonyl)glycine]
SF-36 vitality domain scores for daprodustat and placebo ([2]; at week 12): not distinguishable | adjusted difference in response rate (dapro-placebo), ≥6.0 point SF-36 Vitality increase ([2]; baseline to week 28): 0.13 (0.04, 0.22) | Baseline SF-36 Vitality Sub-score Mean (SD) ([2]; baseline, intention to treat population, includes imputed values): 50.74 (21.175) | Adjusted Mean Treatment Difference (dapro − placebo) in SF-36 Vitality change from baseline at week 28 ([2]; intention to treat population): 5.36 | Adjusted mean SF-36 Vitality Change from Baseline at Week 28 (SE) ([2]; intention to treat population): 7.29 (1.121) | Adjusted mean SF-36 Vitality Change from Baseline at Week 28 (SE) ([2]; intention to treat population, listed as daprodustat): 7.29 | participants with a ≥6.0 point difference from baseline to week 28 in the SF-36 Vitality Sub-score ([2]; responder rate, intention to treat population): 58% | adjusted mean treatment difference (CI) in SF-36 Vitality ([2]; subgroup baseline hsCRP 0.9 to <2.6 mg/L): 1.09 (−4.86, 7.04) | adjusted mean SF-36 Vitality Change ([2]; subgroup baseline hsCRP 0.9 to <2.6 mg/L, week 28): 4.98 | adjusted mean treatment difference (CI) in SF-36 Vitality ([2]; subgroup baseline hsCRP 2.60 to <6.60 mg/L): 4.38 (−1.77, 10.53) | adjusted mean SF-36 Vitality Change ([2]; subgroup baseline hsCRP 2.60 to <6.60 mg/L, week 28): 7.92 | adjusted mean treatment difference (CI) in SF-36 Vitality ([2]; subgroup baseline hsCRP <0.9 mg/L): 10.0 (3.53, 16.47) | adjusted mean SF-36 Vitality Change ([2]; subgroup baseline hsCRP <0.9 mg/L, week 28): 9.84 | adjusted mean treatment difference (CI) in SF-36 Vitality ([2]; subgroup baseline hsCRP ≥6.60 mg/L): 7.71 (1.62, 13.80) | adjusted mean treatment difference (CI) in SF-36 Vitality ([2]; subgroup baseline hsCRP ≥6.60 mg/L, listed as daprodustat): 7.71 | adjusted mean SF-36 Vitality Change ([2]; subgroup baseline hsCRP ≥6.60 mg/L, week 28): 8.24 | adjusted mean treatment difference in SF-36 Vitality domain subscore ([2]; subjects having baseline haemoglobin <9 g/dL): 7.44 | adjusted mean treatment difference in SF-36 Vitality ([2]; subjects having baseline haemoglobin >11 g/dL, small number of subjects): −7.13 | adjusted mean treatment difference in SF-36 Vitality domain subscore ([2]; subjects having baseline haemoglobin ≥9 to <10 g/dL): 5.25 | adjusted mean treatment difference in SF-36 Vitality domain subscore ([2]; subjects having baseline haemoglobin ≥10 to ≤11 g/dL): 6.01 | Week 28 SF-36 Vitality Sub-score Mean (SD) ([2]; week 28, intention to treat population, includes imputed values): 58.40 (18.312) | Adjusted Mean Treatment Difference (dapro − placebo) on CKD-AQ Tired/Low Energy/Weak Domain ([3]; baseline to week 28): 5.91 | Adjusted mean change from baseline to week 28 on CKD-AQ Tired/Low Energy/Weak Domain (SE) [3]: 8.72 (1.086) | Adjusted mean change from baseline to week 28 on CKD-AQ Tired/Low Energy/Weak Domain (SE) ([3]; listed as daprodustat): 8.72 | haemoglobin concentration compared to placebo over the treatment period ([4]; one sided superiority p-value <0.0001): significantly increased haemoglobin concentration | adjusted mean treatment difference in haemoglobin concentration ([4]; subjects having baseline haemoglobin >11 g/dL): 0.76 g/dL | adjusted mean treatment difference in haemoglobin concentration ([4]; subjects having baseline hsCRP ≥6.60 mg/L): 1.25 g/dL | Geometric mean hsCRP ([5]; baseline hsCRP 0.9-<2.60 mg/L, Baseline): 1.46 mg/L | Geometric mean hsCRP ([5]; baseline hsCRP 0.9-<2.60 mg/L, Day 1): 1.46 mg/L | Geometric mean hsCRP ([5]; baseline hsCRP 0.9-<2.60 mg/L, End of Treatment): 2.55 mg/L | Geometric mean hsCRP ([5]; baseline hsCRP 0.9-<2.60 mg/L, Week 28): 2.55 mg/L | Geometric mean hsCRP ([5]; baseline hsCRP 2.60-<6.60 mg/L, Baseline): 3.93 mg/L | Geometric mean hsCRP ([5]; baseline hsCRP 2.60-<6.60 mg/L, Day 1): 3.93 mg/L | Geometric mean hsCRP ([5]; baseline hsCRP 2.60-<6.60 mg/L, End of Treatment): 3.83 mg/L | Geometric mean hsCRP ([5]; baseline hsCRP 2.60-<6.60 mg/L, Week 28): 3.85 mg/L | Geometric mean hsCRP ([5]; baseline hsCRP <0.9 mg/L, Baseline): 0.48 mg/L | Geometric mean hsCRP ([5]; baseline hsCRP <0.9 mg/L, Day 1): 0.48 mg/L | Geometric mean hsCRP ([5]; baseline hsCRP <0.9 mg/L, End of Treatment): 0.86 mg/L | Geometric mean hsCRP ([5]; baseline hsCRP <0.9 mg/L, Week 28): 0.85 mg/L | Geometric mean hsCRP ([5]; baseline hsCRP ≥6.60 mg/L, Baseline): 16.96 mg/L | Geometric mean hsCRP ([5]; baseline hsCRP ≥6.60 mg/L, Day 1): 16.79 mg/L | Geometric mean hsCRP ([5]; baseline hsCRP ≥6.60 mg/L, End of Treatment): 8.92 mg/L | Geometric mean hsCRP ([5]; baseline hsCRP ≥6.60 mg/L, Week 28): 9.04 mg/L | change in hsCRP levels ([5]; subjects with high baseline hsCRP (≥6.60 mg/L), similar reductions in placebo group): large reductions in hsCRP levels
